{"source": "patent US8206732B2", "about": "“Pyrithione biocides enhanced by silver, copper, or zinc ions” (Arch Chemicals, Inc., priority 1999, dated 2012)", "key": {"[1]": {"tested_on": "Pseudomonas aeruginosa 9027", "assay": "Checkerboard MIC test, pyrithiones with silver salts", "assay_type": "cell-based", "details": "silver ion alone or in the inhibitory mixture; TSB pH 7.3, 35° C., 1 to 2 days"}, "[2]": {"tested_on": "Candida albicans 10251", "assay": "Checkerboard MIC test, pyrithiones with silver salts", "assay_type": "cell-based", "details": "silver ion alone or in the inhibitory mixture; TSB pH 7.3, 35° C., 1 to 2 days"}, "[3]": {"tested_on": "Staphylococcus aureus 27217", "assay": "Checkerboard MIC test, pyrithiones with silver salts", "assay_type": "cell-based", "details": "TSB pH 7.3, 35° C., 1 to 2 days"}, "[4]": {"tested_on": "Escherichia coli 10536", "assay": "Checkerboard MIC test, pyrithiones with silver salts", "assay_type": "cell-based", "details": "TSB pH 7.3, 35° C., 1 to 2 days"}, "[5]": {"tested_on": "Pityrosporum ovale 1452", "assay": "Checkerboard MIC test, pyrithiones with silver salts", "assay_type": "cell-based", "details": "silver ion alone or in the inhibitory mixture; Ushijima Medium pH 5.5, 35° C., 1 to 2 days"}, "[6]": {"tested_on": "seven strains of bacteria isolated from contaminated metalworking fluid", "assay": "Challenge test in metalworking fluid emulsion, bacterial viable plate counts (Example 4, FIG. 1)", "assay_type": "cell-based, Pseudomonas spp., Alcaligenes faecalis, Citrobacter freundii", "details": "250 ppm (v/v) NaPT (40% active), 10 ppm Cu (II) or Zn(II); challenged twice over 40 days"}, "[7]": {"tested_on": "Cephalosporium sp.", "assay": "MIC in Tryptic Soy Broth, microtiter (Example 1)", "assay_type": "cell-based", "details": "TSB, 28° C., incubated 5 days; single agent (NaPT without Cu)"}, "[8]": {"tested_on": "Aspergillus niger ATCC 6275", "assay": "MIC in Tryptic Soy Broth, microtiter (Example 1)", "assay_type": "cell-based", "details": "TSB, 28° C., incubated 7-8 days; single agent (NaPT without Cu)"}, "[9]": {"tested_on": "Fusarium sp.", "assay": "MIC in Tryptic Soy Broth, microtiter (Example 1)", "assay_type": "cell-based", "details": "TSB, 28° C., incubated 5 days; single agent (NaPT without Cu)", "experimental": "Equal volumes of bacterial suspension (10^6 bacteria per milliliter of TSB) containing Pseudomonas aeruginosa ATCC 9027 or fungal spore suspension (10^5 spores per milliliter of TSB) containing Aspergillus niger ATCC 6275 or species of Fusarium and Cephalosporium isolated from contaminated metalworking fluid were added to each microtiter plate well, and the plates were incubated at 28° C. Controls were prepared for cultures inoculated into TSB with and without Cu (II)."}, "[10]": {"tested_on": "Pseudomonas aeruginosa ATCC 9027", "assay": "MIC in Tryptic Soy Broth, microtiter (Example 1)", "assay_type": "cell-based", "details": "TSB, 28° C., incubated 5-6 days; single agent (NaPT without Cu)"}, "[11]": {"tested_on": "Fusarium sp. and Cephalosporium sp.", "assay": "Challenge test in metalworking fluid emulsion, fungal viable plate counts (Example 4, FIG. 2)", "assay_type": "cell-based", "details": "250 ppm (v/v) NaPT (40% active), 10 ppm Cu (II) or Zn(II); challenged twice over 40 days", "experimental": "An emulsion was prepared from a 5% dilution of a concentrate, consisting of mineral oil (83.5%), sulfonated hydrocarbon (10.7%), oleic acid (1.0%), triethanolamine (0.8%), methyl tallowate (3.0%), and propylene glycol ether (1.0%) and dispensed into Erlenmeyer flasks. Each sample was challenged twice over a period of 40 days with 10^7 calls of bacteria and 10^5 fungal spores per milliliter of emulsion. The challenge consisted of seven strains of bacteria and 2 strains of fungi originally isolated from contaminated metalworking fluid: Pseudomonas rubescens NCIMB 12202, Pseudomonas stutzeri sp., Pseudomonas fluorescens NCIMB 12202, Pseudomonas aeruginosa CIMB 6749, Pseudomonas olevorans NCIMB 6576, Alcaligenes faecalis sp., Citrobacter freundii CIMB 12203, Fusarium sp., and Cephalosporium sp. The fluids were agitated continuously on a rotary shaker, and surviving bacteria and fungi were enumerated periodically by viable plate counts on Tryptic Soy Agar."}, "[12]": {"tested_on": "Pseudomonas aeruginosa NCIMB 6749", "assay": "Checkerboard MIC test, pyrithiones with zinc salts", "assay_type": "cell-based", "details": "pyrithione alone or pyrithione concentration in the inhibitory mixture; TSB, 28 C, 3 days"}, "[13]": {"tested_on": "two cultures of fungi", "assay": "Challenge test in soluble oil metalworking fluid, fungi (Example 6)", "assay_type": "cell-based", "details": "soluble oil MWF, 10 ppm Zn, 100 ppm NaPT, 50 ppm ZPT or 50 ppm CuPT as in column head"}, "[14]": {"tested_on": "Staphylococcus aureus ATCC 27217", "assay": "Zone of inhibition test (paper disc on TSA)", "assay_type": "cell-based", "details": "6.5 mm discs; 0.135% pyrithione, 0.1% ZnCl2 or both; 28° C., 24 hr"}, "[15]": {"tested_on": "Aspergillus niger ATCC 6275", "assay": "Checkerboard MIC test, pyrithiones with zinc salts", "assay_type": "cell-based", "details": "pyrithione alone or in the inhibitory mixture with ZnO; TSB, 28 C, 5 days"}, "[16]": {"tested_on": "seven cultures of bacteria", "assay": "Challenge test in soluble oil metalworking fluid, bacteria (Example 6)", "assay_type": "cell-based", "details": "soluble oil MWF, 10 ppm Zn, 100 ppm NaPT, 50 ppm ZPT or 50 ppm CuPT as in column head"}, "[17]": {"tested_on": "Staphylococcus aureus ATCC 27217", "assay": "Checkerboard MIC test, pyrithiones with zinc salts", "assay_type": "cell-based", "details": "pyrithione alone or pyrithione concentration in the inhibitory mixture; TSB, 28 C, 3 days"}, "[18]": {"tested_on": "Pseudomonas aeruginosa NCIMB 6749", "assay": "Zone of inhibition test (paper disc on TSA)", "assay_type": "cell-based", "details": "6.5 mm discs; 0.135% pyrithione, 0.1% ZnCl2 or both; 28° C., 24 hr"}, "[19]": {"tested_on": "Ps. aeruginosa ATCC 9027", "assay": "Checkerboard MIC test, pyrithiones with zinc salts", "assay_type": "cell-based, Pseudomonas aeruginosa", "details": "pyrithione alone or in the inhibitory mixture with ZnO; TSB, 28 C, 3 days"}, "[20]": {"tested_on": "Escherichia coli ATCC 10536", "assay": "Zone of inhibition test (paper disc on TSA)", "assay_type": "cell-based", "details": "6.5 mm discs; 0.135% pyrithione, 0.1% ZnCl2 or both; 28° C., 24 hr"}, "[21]": {"tested_on": "Fusarium sp.", "assay": "Checkerboard MIC test, pyrithiones with zinc salts", "assay_type": "cell-based", "details": "pyrithione alone or pyrithione concentration in the inhibitory mixture; TSB, 28 C, 5 days", "experimental": "Mixtures of pyrithione and zinc or silver in various proportions were tested for relative efficacy by a modification of the procedure described by Dougherty, et al.\nEqual volumes of bacteria (10^6 cells/ml) or fungi (10^5 spores/ml) were added to each microtiter plate well. The plates were incubated at 28 C for 3 days (bacteria) or 5 days (fungi), and the minimum inhibitory concentration (MIC) of biocide was determined. The Fractional Inhibitory Concentration (FIC=concentration of biocide in an inhibitory mixture divided by the MIC of the pure biocide) was determined, and the FIC Index (sum of the two FIC's) was calculated. The type of interaction was categorized according to the magnitude of the Index: Synergistic (<1), Additive (1), or Antagonistic (>1)."}, "[22]": {"details": "silver ion alone or in the inhibitory mixture"}, "[23]": {"details": "ZPT alone or in the inhibitory mixture with silver salt"}}}
{"molecule": "[Cl][Ag]", "note": "[AgCl2, AgCl]", "values": [{"measurement": "MIC Ag^+1 Ion", "setting": "[1]", "value": 3.8, "unit": "ppm"}, {"measurement": "MIC Ag^+1 Ion", "setting": "[2]", "value": 9.8, "unit": "ppm"}, {"measurement": "MIC Ag^+1 Ion", "setting": "[3]; [22]", "value": 9.5, "unit": "ppm"}, {"measurement": "MIC Ag^+1 Ion", "setting": "[4]; [22]", "value": 18.8, "unit": "ppm"}, {"measurement": "MIC Ag^+1 Ion", "setting": "[5]", "value": 1.2, "unit": "ppm"}]}
{"molecule": "O.O.O.O.O.O=S(=O)([O-])[O-].[Cu+2]", "note": "[Cu (II), CuSO4.5H2O]", "values": [{"measurement": "antibacterial efficacy in a metalworking fluid (FIG. 1)", "setting": "[6]", "value": "significantly reduced bacterial counts until the second challenge"}, {"measurement": "MIC", "setting": "[7]", "value": ">0.5", "unit": "ppm"}, {"measurement": "MIC", "setting": "[8]", "value": ">0.5", "unit": "ppm"}, {"measurement": "MIC", "setting": "[9]", "value": ">0.5", "unit": "ppm"}, {"measurement": "MIC", "setting": "[10]", "value": ">0.5", "unit": "ppm"}, {"measurement": "antifungal efficacy in a metalworking fluid (FIG. 2)", "setting": "[11]", "value": "little effect on reducing the growth of fungi"}]}
{"molecule": "zinc pyrithione [ZPT]", "values": [{"measurement": "MIC Pyrithione", "setting": "[12]", "value": 256, "unit": "ppm"}, {"measurement": "FUNGI (cfu/ml)", "setting": "[13]; DAY 0", "value": "2.4 × 10^5 cfu/ml"}, {"measurement": "FUNGI (cfu/ml)", "setting": "[13]; DAY 6", "value": 1000, "unit": "cfu/ml"}, {"measurement": "FUNGI (cfu/ml)", "setting": "[13]; DAY 13", "value": 10, "unit": "cfu/ml"}, {"measurement": "FUNGI (cfu/ml)", "setting": "[13]; DAY 20", "value": 10, "unit": "cfu/ml"}, {"measurement": "Zone of Inhibition", "setting": "[14]", "value": 27, "unit": "mm"}, {"measurement": "MIC Pyrithione", "setting": "[15]", "value": 64, "unit": "ppm"}, {"measurement": "BACTERIA (cfu/ml)", "setting": "[16]; DAY 0", "value": "3.2 × 10^7 cfu/ml"}, {"measurement": "BACTERIA (cfu/ml)", "setting": "[16]; DAY 6", "value": 1000, "unit": "cfu/ml"}, {"measurement": "BACTERIA (cfu/ml)", "setting": "[16]; DAY 13", "value": 4400, "unit": "cfu/ml"}, {"measurement": "BACTERIA (cfu/ml)", "setting": "[16]; DAY 20", "value": 7700, "unit": "cfu/ml"}, {"measurement": "MIC Pyrithione", "setting": "[17]", "value": 4, "unit": "ppm"}, {"measurement": "MIC ZPT", "setting": "[3]; [23]", "value": 4, "unit": "ppm"}, {"measurement": "Zone of Inhibition", "setting": "[18]", "value": 10, "unit": "mm"}, {"measurement": "MIC ZPT", "setting": "[4]; [23]", "value": 8, "unit": "ppm"}, {"measurement": "MIC Pyrithione", "setting": "[19]", "value": 512, "unit": "ppm"}, {"measurement": "Zone of Inhibition", "setting": "[20]", "value": 31, "unit": "mm"}, {"measurement": "MIC Pyrithione", "setting": "[21]", "value": 64, "unit": "ppm"}]}
